Test results as given in patent US6500811B2, “Sulfonylaminophosphinic and sulfonylaminophosphonic acid derivatives, methods for their preparation and use” (Aventis Pharma Deutschland GmbH, priority 1998, dated 2002).

How the values were obtained:
Assay type in all cases: biochemical
[1] = system: aggrecanase; assay: Aggrecanase activity from rat chondrosarcoma cell supernatant, rAgg1mut cleavage detected by BC-3 Western blot; details: RCS cell culture supernatant, 1 h preincubation, 4 h incubation with rAgg1mut
Experimental: Preparation and determination of the enzymatic activity of the catalytic domain of aggrecanase using rat chondrosarcoma cells:
For the generation of the as yet not identified “aggrecanase” activity, rat chondrosarcoma cells (RCS) were used. Lark et al.; 270 J. BIOL. CHEM. 2550 (1995). These cells were inoculated into 96-well cell culture plates precoated with poly-L-lysine (80,000 cells/well). After stimulation of the RCS cells with retinoic acid (0.67 μM) and an incubation time of 47 hours (h) at 37° C. and 5% CO2, these cells generate the “aggrecanase” activity. The test substance compound 1 was then preincubated for 1 h in the “aggrecanase”-containing cell culture supernatant before 5 μg of eucaryotic rAgg1mut (Buttner et al., 333 BIOCHEM. J. 159 (1998); Hughes et al., 272 J. BIOL. CHEM. 20269 (1997)) were added for the detection of the “aggrecanase” cleavage activity in the cell culture supernatant of the RCS cells. After an incubation time of 4 h, the cell culture supernatant was removed and the cleavage products of the rAgg1mut fusion proteins generated by the “aggrecanase” activity were detected by means of SDS-polyacrylamide gel electrophoresis and Western Blot analyses with the monoclonal antibody BC-3. Hughes et al., 305 BIOCHEM. J. 799 (1995). […] The less cleaved rAgg1mut was detected, the more efficacious was the tested compound of the formula I.
The IC50 values listed in Table 3 are determined as those inhibitor concentrations which in each case led to a 50% inhibition of the enzyme aggrecanase.

[2] = target: T1, neutrophil collagenase (MMP-8) (Homo sapiens, UniProt P22894); assay: Enzymatic activity of the catalytic domain of neutrophil collagenase, fluorogenic substrate; details: pH 6.5, 15 min preincubation
T1 construct: catalytic domain of human stromelysin and of neutrophil collagenase; made in house
Experimental: (§1) Preparation and determination of the enzymatic activity of the catalytic domain of human stromelysin and of neutrophil collagenase.
(§2) The two enzymes—stromelysin (“MMP-3”) and neutrophil collagenase (“MMP-8”)—were prepared according to Ye et al., 31 BIOCHEMISTRY 11231 (1992). For the measurement of the enzyme activity or of the enzyme inhibitor action, 70 μl of buffer solution and 10 μl of enzyme solution are incubated for 15 minutes with 10 μl of a 10% strength (v/v) aqueous dimethyl sulfoxide solution which optionally contains the enzyme inhibitor. After addition of 10 μl of a 10% strength (v/v) aqueous dimethyl sulfoxide solution which contains 1 mmol/l of the substrate, the enzyme reaction is monitored by fluorescence spectroscopy (328 nm (ex)/393 nm(em)).
(§3) The enzyme activity is shown as extinction increase/minute. The IC50 values listed in Table 2 are determined as those inhibitor concentrations which in each case lead to a 50% inhibition of the enzyme.
(§4) The buffer solution contains 0.05% Brij (Sigma, Deisenhofen, Germany) and 0.1 mol/l of tris/HCl, 0.1 mol/l of NaCl, 0.01 mol/l of CaCl2 and 0.1 mol/l of piperazine-N,N′-bis[2-ethanesulfonic acid] (pH=6.5).
(§5) The enzyme solution contains 5 μg/ml of one of the enzyme domains prepared according to Ye et al. The substrate solution contains 1 mmol/l of the fluorogenic substrate (7-methoxycoumarin4-yl)acetyl-Pro-Leu-Gly-Leu-3-(2′,4′-dinitrophenyl)-L-2,3-diaminopropionyl-Ala-Arg-NH2 (Bachem, Heidelberg, Germany).

[3] = target: T2, stromelysin (MMP-3) (Homo sapiens, UniProt P08254); assay: Enzymatic activity of the catalytic domain of human stromelysin, fluorogenic substrate; details: pH 6.5, 15 min preincubation
T2 construct: enzymatic activity of the catalytic domain of human stromelysin; made in house
Experimental: as §1, §2, §3, §4, §5

T1 sequence (P22894 100-262 limits assumed): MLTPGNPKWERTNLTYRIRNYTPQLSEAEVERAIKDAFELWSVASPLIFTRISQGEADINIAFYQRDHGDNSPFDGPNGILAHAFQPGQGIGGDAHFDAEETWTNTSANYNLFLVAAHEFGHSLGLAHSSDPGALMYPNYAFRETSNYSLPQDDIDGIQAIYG
T2 sequence (P08254 100-272 limits assumed): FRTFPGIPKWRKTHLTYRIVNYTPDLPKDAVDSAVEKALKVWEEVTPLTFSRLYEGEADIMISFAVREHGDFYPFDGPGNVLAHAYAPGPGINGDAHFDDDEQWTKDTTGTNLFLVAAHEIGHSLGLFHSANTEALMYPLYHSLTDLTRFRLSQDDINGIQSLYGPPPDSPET

| IC50 [1] [nM] | IC50 [2] [nM] | IC50 [3] [nM] | SMILES |
| --- | --- | --- | --- |
| 22000 | 7 | 100 | O=P(O)(O)C(NS(=O)(=O)c1ccc(-c2ccc(Cl)cc2)cc1)c1ccccc1 (racemic) [Example 3, (R,S)-[(4′-Chlorobiphenyl-4-sulfonylamino)phenylmethyl]-phosphonic acid] |
| 12000 | 60 | 500 | O=P(O)(O)C(Cc1c[nH]c2ccccc12)NS(=O)(=O)c1ccc(-c2ccc(Cl)cc2)cc1 (racemic) [Example 4, (R,S)-[1-(4′-Chlorobiphenyl-4-sulfonylamino)-2-(1H-indol-3-yl)-ethyl]phosphonic acid] |
| 25000 | 5 | 100 | CC(NS(=O)(=O)c1ccc(-c2ccc(Cl)cc2)cc1)P(=O)(O)O (racemic) [Example 5, (R,S)-[1-(4′-Chlorobiphenyl-4-sulfonylamino)ethyl]phosphonic acid] |
| 2400 | 3 | 30 | CC(C)CC(NS(=O)(=O)c1ccc(-c2ccc(Cl)cc2)cc1)P(=O)(O)O (racemic) [Example 6, (R,S)-[1-(4′-chlorobiphenyl-4-sulfonylamino)-3-methylbutyl]-phosphonic acid] |
| 600 | 1 | 6 | CC(C)[C@H](NS(=O)(=O)c1ccc(-c2ccc(Cl)cc2)cc1)P(=O)(O)O [Example 1, (R)-[1-(4′-Chlorobiphenyl-4-sulfonylamino)-2-methylpropyl]-phosphonic acid] |
| 15000 |  |  | O=P(O)(O)C(O)CC(NS(=O)(=O)c1ccc(-c2ccc(Cl)cc2)cc1)c1ccccc1 (stereo not drawn) [Example 8] |
| 50000 |  |  | O=C(O)C(CP(=O)(O)O)NS(=O)(=O)c1ccc(-c2ccc(Cl)cc2)cc1 (stereo not drawn) [Example 12] |
| 50000 |  |  | O=P(O)(O)CCNS(=O)(=O)c1ccc(-c2ccc(Cl)cc2)cc1 [Example 13] |
| 55000 |  |  | O=C(O)C(CCP(=O)(O)O)NS(=O)(=O)c1ccc(-c2ccc(Cl)cc2)cc1 (stereo not drawn) [Example 14] |
| 28000 |  |  | O=P(O)(O)CCNS(=O)(=O)c1ccc(-c2ccc(N3CCCC3)cc2)cc1 [Example 16] |
| 69000 |  |  | O=C(O)C(CP(=O)(O)O)NS(=O)(=O)c1ccc(-c2ccc(N3CCCC3)cc2)cc1 (stereo not drawn) [Example 17] |
| 60000 | 1000 | 10000 | CC(C)[C@@H](NS(=O)(=O)c1ccc(-c2ccc(Cl)cc2)cc1)P(=O)(O)O [Example 18] |
|  | 2 | 5 | CC(C)[C@H](NS(=O)(=O)c1ccc(-c2ccc(N3CCCC3)cc2)cc1)P(=O)(O)O [Example 19] |
| 4700 | 2 | 8 | CC(NS(=O)(=O)CCc1ccc(-c2ccc(Cl)cc2)cc1)P(=O)(O)O (stereo not drawn) [Example 20] |
| 520 |  |  | O=C(O)C(CCC(NS(=O)(=O)c1ccc(-c2ccc(Cl)cc2)cc1)P(=O)(O)O)NS(=O)(=O)c1ccc(-c2ccc(Cl)cc2)cc1 (stereo not drawn) [Example 21] |
| 8300 | 20 | 20 | CC(NS(=O)(=O)c1ccc(-c2ccc(N3CCCC3)cc2)cc1)P(=O)(O)O (stereo not drawn) [Example 22] |
|  | 30 | 400 | CCCCOc1ccc(S(=O)(=O)N[C@@H](C(C)C)P(=O)(O)O)cc1 [Example 24] |
|  | 2 | 3 | CC(C)[C@H](NS(=O)(=O)CCc1ccc(-c2ccc(Cl)cc2)cc1)P(=O)(O)O [Example 25] |

| SMILES | IC50 [1] [nM] | IC50 [2] [nM] | IC50 [3] [nM] |
| --- | --- | --- | --- |
| CCOP(=O)(O)C(NS(=O)(=O)c1ccc(-c2ccc(Cl)cc2)cc1)c1ccccc1 (racemic) [Example 2, Monoethyl (R,S)-[1-(4′-chlorobiphenyl-4-sulfonylamino)-1-phenylmethyl]phosphonate] | 79000 | 200 | 5000 |
| COP(=O)(OC)C(O)CC(NS(=O)(=O)c1ccc(-c2ccc(Cl)cc2)cc1)c1ccc(C(F)(F)F)cc1 (stereo not drawn) [Example 10] | 2100 |  |  |
| CCOP(=O)(O)C(O)CC(NS(=O)(=O)c1ccc(-c2ccc(Cl)cc2)cc1)c1ccccc1 (stereo not drawn) [Example 15] | 67000 |  |  |
